This note sets out measurements from patent US20260191838A1, “COMBINATIONS COMPRISING A MENIN-MLL INHIBITOR AND A BCL-2 INHIBITOR” (JANSSEN PHARMACEUTICA NV, priority 2022, published 2026).

What is called pIC50 is the IC50 on a negative log10 scale, so that one unit is a factor of ten.

In one test the test system is MOLM14 cells. As to the kind of experiment: Proliferation (spheroid) assay, MOLM14. Type of test: cell-based. The settings on record: Homo sapiens, MOLM-14, 192 h, 8 days; read-out: spheroid assay_MOLM14 IC50. Here is the method: The anti-proliferative effect of menin/MLL protein/protein interaction inhibitor test compounds was assessed in human leukemia cell lines. The cell line MOLM14 harbors a MLL translocation and expresses the MLL fusion protein MLL-AF9, respectively, as well as the wildtype protein from the second allele. OCI-AML3 cells that carry the NPM1c gene mutation were also tested. […] KO-52 was used as a control cell line containing two MLL (KMT2A) wildtype alleles in order to exclude compounds that display general cytotoxic effects.
MOLM14 cells were cultured in RPMI-1640 (Sigma Aldrich) supplemented with 10% heat-inactivated fetal bovine serum (HyClone), 2 mM L-glutamine (Sigma Aldrich) and 50 μg/ml gentamycin (Gibco). KO-52 and OCI-AML3 cell lines were propagated in alpha-MEM (Sigma Aldrich) supplemented with 20% heat-inactivated fetal bovine serum (HyClone), 2 mM L-glutamine (Sigma Aldrich) and 50 μg/ml gentamycin (Gibco).
In order to assess the anti-proliferative effects, 200 MOLM14 cells, […] or 300 KO-52 cells were seeded in 200 μl media per well in 96-well round bottom, ultra-low attachment plates (Costar, catalogue number 7007). Cell seeding numbers were chosen based on growth curves to ensure linear growth throughout the experiment. Test compounds were added at different concentrations and the DMSO content was normalized to 0.3%. Cells were incubated for 8 days at 37° C. and 5% CO2. Spheroid like growth was measured in real-time by live-cell imaging (IncuCyteZOOM, Essenbio, 4× objective) acquiring images at day 8. Confluence (%) as a measure of spheroid size was determined using an integrated analysis tool.
In order to determine the effect of the test compounds over time, the confluence in each well as a measure of spheroid size, was calculated. Confluence of the highest dose of a reference compound was used as baseline for the LC (Low control) and the confluence of DMSO treated cells was used as 0% cytotoxicity (High Control, HC).
Absolute IC50 values were calculated as percent change in confluence as follows: • LC=Low Control: cells treated with e.g. 1 μM of the cytotoxic agent staurosporin, or e.g. cells treated with a high concentration of an alternative reference compound • HC═High Control: Mean confluence (%) (DMSO treated cells) • % Effect=100−(100*(Sample-LC)/(HC-LC))
GraphPad Prism (version 7.00) was used to calculate the ICso. Dose-response equation was used for the plot of % Effect vs Log10 compound concentration with a variable slope and fixing the maximum to 100% and the minimum to 0%.

A further test relates to MEIS1 mRNA. As to the kind of experiment: MEIS1 mRNA expression assay (Quantigene Singleplex) in MOLM14 cells. As to conditions: Homo sapiens, MOLM-14, 48 h. The class given is cell-based. As to the method:
2b) MEIS1 mRNA Expression Assay
MEIS1 mRNA expression upon treatment of compound was examined by Quantigene Singleplex assay (Thermo Fisher Scientific). This technology allows for direct quantification of mRNA targets using probes hybridizing to defined target sequences of interest and the signal is detected using a Multimode plate reader Envision (PerkinElmer). The MOLM14 cell line was used for this experiment. Cells were plated in 96-well plates at 3,750 cells/well in the presence of increasing concentrations of compounds. After incubation of 48 hours with compounds, cells were lysed in lysis buffer and incubated for 45 minutes at 55° C. Cell lysates were mixed with human MEIS1 specific capture probe or human RPL28 (Ribosomal Protein L28) specific probe as a normalization control, as well as blocking probes. Cell lysates were then transferred to the custom assay hybridization plate (Thermo Fisher Scientific) and incubated for 18 to 22 hours at 55° C. Subsequently, plates were washed to remove unbound materials followed by sequential addition of preamplifiers, amplifiers, and label probe. Signals (=gene counts) were measured with a Multimode plate reader Envision. IC50s were calculated by dose-response modelling using appropriate software. For all non-housekeeper genes response equal counts corrected for background and relative expression. For each sample, each test gene signal (background subtracted) was divided by the normalization gene signal (RPL28: background subtracted). Fold changes were calculated by dividing the normalized values for the treated samples by the normalized values for the DMSO treated sample. Fold changes of each target gene were used for the calculation of IC50s.

For the next test, the target named is T1, Menin/MLL (Homo sapiens, UniProt O00255, T541A).
T1 construct: Menin (a.a 1-610-6×his tag, 2.3 mg/mL in 20 mM Hepes)
T1 sequence (O00255 with tags, fused parts or gaps T541A): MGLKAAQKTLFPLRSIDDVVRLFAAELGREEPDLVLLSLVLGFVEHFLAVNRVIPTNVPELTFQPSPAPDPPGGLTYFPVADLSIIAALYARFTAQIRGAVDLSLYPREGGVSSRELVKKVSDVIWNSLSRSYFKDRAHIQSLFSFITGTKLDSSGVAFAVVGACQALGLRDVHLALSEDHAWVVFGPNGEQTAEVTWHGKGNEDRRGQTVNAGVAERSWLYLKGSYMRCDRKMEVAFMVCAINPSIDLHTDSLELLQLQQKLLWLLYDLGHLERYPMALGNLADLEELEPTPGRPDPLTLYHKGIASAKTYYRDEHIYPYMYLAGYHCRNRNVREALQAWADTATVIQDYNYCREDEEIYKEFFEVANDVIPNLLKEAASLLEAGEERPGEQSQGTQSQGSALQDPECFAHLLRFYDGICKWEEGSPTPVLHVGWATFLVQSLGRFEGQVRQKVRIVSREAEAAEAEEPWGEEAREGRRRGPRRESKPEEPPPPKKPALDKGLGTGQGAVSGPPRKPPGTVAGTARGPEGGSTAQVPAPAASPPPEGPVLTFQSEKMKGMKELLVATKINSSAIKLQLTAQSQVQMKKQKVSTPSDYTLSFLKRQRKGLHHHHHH
Nature of the test: Menin/MLL homogenous time-resolved fluorescence (HTRF) assay. The class given is binding. The settings on record: 30 min incubation of test compound with terbium chelate-labeled menin. As to the method: 1) Menin/MLL Homogenous Time-Resolved Fluorescence (HTRF) Assay
To an untreated, white 384-well microtiter plate was added 40 nL 200× test compound in DMSO and 4 μL 2× terbium chelate-labeled menin (vide infra for preparation) in assay buffer (40 mM Tris.HCl, pH 7.5, 50 mM NaCl, 1 mM DTT (dithiothreitol) and 0.05% Pluronic F-127). After incubation of test compound and terbium chelate-labeled menin for 30 min at ambient temperature, 4 μL 2×FITC-MBM1 peptide (FITC-β-alanine-[…]-NH2) (“FITC” means fluorescein isothiocyanate) in assay buffer was added, the microtiter plate centrifuged at 1000 rpm for 1 min and the assay mixtures incubated for 15 min at ambient temperature. The relative amount of menin-FITC-MBM1 complex present in an assay mixture is determined by measuring the homogenous time-resolved fluorescence (HTRF) of the terbium/FITC donor/acceptor fluorphore pair using an EnVision microplate reader (ex. 337 nm/terbium em. 490 nm/FITC em. 520 nm) at ambient temperature. The degree of fluorescence resonance energy transfer (the HTRF value) is expressed as the ratio of the fluorescence emission intensities of the FITC and terbium fluorophores (F^em 520 nm/F^em 490 nm). […]
Compound potencies were determined by first calculating % inhibition at each compound concentration according to equation 1: […]

Test [1] concerns MOLM-13 tumors in NSG mice. As to the kind of experiment: Efficacy (survival) in disseminated MOLM-13 (KMT2A-rearranged) IV model in NSG mice. Type of test: in vivo. The settings on record: NSG mice with established MOLM-13 tumors, 4 weeks treatment; azacitidine 2 mg/kg ip QD × 7, venetoclax 100 mg/kg po QD × 28, Compound 51 2 mg/kg po QD × 28 (Table 6). Here is the method: 4) Efficacy of Menin-KMT2A Inhibitor in Combination with Venetoclax, and Optionally, Azacitidine, in MOLM-13 (KMT2A-Rearranged) IV Model in NSG Mice
Compound 51 was formulated in purified pyrogen-free deionized water, pH 4.0 and prepared to reach a total volume of 8 mL/kg. Doses were adjusted by individual body weight each day. Working stocks of Compound 51 were prepared once per week for each study and stored at 25° C.
Female NSG (NOD.Cg-Prkdc^scid Il2rg^tm1Wj1/SzJ) mice were used when they were approximately 6 to 8 weeks of age and weighed approximately 25 g. All animals could acclimate and recover from any shipping-related stress for a minimum of 7 days prior to experimental use. Autoclaved water and irradiated food were provided ad libitum, and the animals were maintained on a 12 hour light and dark cycle. Cages, bedding, and water bottles were autoclaved before use and changed weekly. The tissue culture and cell injection reagents are summarized below in Table 5.
Tumor Model and Cell Culture Method
Human AML MOLM-13 cells were cultured at 37° C., 5% CO2 in the indicated complete culture media (RPMI 1640+10% HI-FBS+2 mM L-glutamine+50 μg/ml Gentamycin). Cells were harvested while in logarithmic growth and resuspended in cold (4° C.) Roswell Park Memorial Institute (RPMI) 1640 in serum-free medium.
For the disseminated MOLM-13 model, each mouse received 1×10^5 cells via IV injection in a total volume of 0.2 mL using a 26-gauge needle.
Day 0 is the day of tumor cell implantation and study initiation.
Mice bearing IV MOLM-13 xenograft tumors were randomly assigned to treatment groups 5 days post-tumor cell engraftment.
Animals were monitored daily for clinical signs related to either compound toxicity or tumor burden (i.e., hind limb paralysis, lethargy, etc.).
For survival assessment, results were plotted as the percentage survival against days post tumor implant. Negative clinical signs and/or ≥20% body weight loss was used as a surrogate endpoint for death. Median survival was determined utilizing Kaplan-Meier survival analysis. The percent increased life span (ILS) was calculated as: ((median survival day of treated group−median survival day of control group)/median survival day of control group)×100. Animals failing to reach the surrogate endpoint due to adverse clinical signs or death unrelated to treatment were censored for the survival assessment. As defined by NCI criteria, ≅25% ILS is considered biologically significant. (Johnson J I et al. Br J Cancer. 2001. 84(10), 1424-1431).
Survival and body weight data were graphically represented utilizing Prism (Version 9). Statistical significance for body weights was evaluated as described above. Statistical significance was evaluated for Kaplan-Meier survival plots comparing therapeutic treatment group vs. appropriate vehicle-treated control using log-rank (Mantel-Cox) test in R software version 3.4.2. Differences between groups were considered significant when the p value was ≤0.05.
The disseminated MOLM-13 model described above was used to examine the efficacy of menin-KMT2A-inhibitor (formulated as described above) in combination with venetoclax (formulated in polyethylene glycol [PEG]-400/Phosal50/dimethyl sulfoxide [DMSO]), and optionally azacitidine (formulated in 0.9% saline). Treatment with compound(s) was initiated 5 days after cell injection. Compound 51 was given in the morning, and venetoclax or azacitidine was given in the afternoon, approximately 6-8 hr apart.

pIC50: −log10 of the molar value.

In the case of `COCC(=O)N1CCC(C(C)N2CCC(Cc3cn(-c4ccc(F)cc4C(=O)N(C)C(C)C)c4cncc(C)c34)C2)CC1` (single isomer, unassigned) [Compound 117a], the pIC50 in the test with MOLM14 cells is 8.30; in the test on MEIS1 mRNA, 8.15. For the compound `Cc1cncc2c1c(CC1CN(CC3CCNC(=O)C3)C1)cn2-c1ccc(F)cc1C(=O)N(C)C(C)C` (stereo not shown) [Compound 196], on Menin/MLL, the pIC50 is 9.72. Turning to `CC(=O)N1CCC(N2CC[C@H](Cc3cn(-c4ccc(F)cc4C(=O)N(C)C(C)C)c4cncc(C)c34)C2)CC1` [Compound 156], the pIC50 was 7.38 in the test on MOLM14 cells and 6.73 with MEIS1 mRNA. For `CNC(=O)N1CCC(CN2CC[C@H](Cc3cn(-c4ccc(F)cc4C(=O)N(C)C(C)C)c4cncc(C)c34)C2)CC1` (single isomer, unassigned) [Compound 101], the pIC50 in the test with MOLM14 cells is 7.39; with MEIS1 mRNA, 8.15.

As to `Nc1ncn([C@@H]2O[C@H](CO)[C@@H](O)[C@H]2O)c(=O)n1` [Azacitidine, azacitidine, reference compound], in test [1], the “% ILS (increased life span)” value was determined as 37%.

As to `CC1(C)CCC(CN2CCN(c3ccc(C(=O)NS(=O)(=O)c4ccc(NCC5CCOCC5)c([N+](=O)[O-])c4)c(Oc4cnc5[nH]ccc5c4)c3)CC2)=C(c2ccc(Cl)cc2)C1` [Venetoclax, venetoclax, reference compound], the “% ILS (increased life span)” value in test [1] was determined as 11%. `CC(=O)N1CC2CC(N3CC(Cc4cn(-c5ccc(F)cc5C(=O)N(C)C(C)C)c5cncc(C)c45)C3)CC2C1` (stereo not shown) [Compound 294a]: the pIC50 against Menin/MLL was 9.63.
